Assay results as given in patent US9377453B2, “Systems and methods for detection of cellular stress” (RAMOT AT TEL AVIV UNIVERSITY LTD., priority 2010, dated 2016).
“Also recorded” adds a separate entry of the source.

Test system: CHO cells
Test: Subcellular localization of Cy3-labeled tRNA in CHO cells treated with puromycin
Type: cell-based, Chinese hamster
Settings: puromycin 1 mM, 0.5 h, 7 h post transfection; treated vs untreated CHO cells
Method: Chinese hamster ovary cells (CHO-Ki) were maintained in nutrient mixture F-12 (Ham) supplemented with 10% (v/v) fetal calf serum, 5 mM L-glutamine and antibiotics (all from Biological Industries).
Transfection—Cells were seeded in the day preceding the transfection (1.5×10^5 cells, 12 mm coverslips, in 24-well plates). Transfection was with 3 μg of yeast labeled-bulk tRNA (Interferin™, polyplus-transfection, according to manufacture's instructions). For DNA transfection (pSuper-retro-GFP), 9×10^4 cells/well were transfected with 1 μg DNA (TransIT-LT1 transfection reagent, according to manufacture's protocol). The following day, cells were re-transfected with labeled tRNA as described above.
Quantitative image analysis—For quantitative analysis of spatial distribution of the labeled tRNA and additional cellular markers, the entire cell volume was imaged by spinning disk confocal microscopy (0.15 μm between planes of the z-stack) with a 100× lens and 1×1 “on chip binning” yielding a pixel size of 100×100 nm; and deconvolved with the constrained iterative algorithm of Slidebook™ which employs an experimentally measured point spread function (PSF). […]

Q: Which “Nuclear localization of labeled tRNA (tRNA signal co-localizing with Hoechst signal)” value does the source give for `COc1ccc(C[C@H](N)C(=O)N[C@H]2[C@@H](O)[C@H](n3cnc4c(N(C)C)ncnc43)O[C@@H]2CO)cc1` [puromycin] here?
A: Its value is “marked accumulation of tRNA in the nucleus; also recorded: increase in nuclear localization of labeled tRNA”.
